Assay results as given in patent USRE48842E1, “Pyrimido-pyrrolo-oxazine-dione compound inhibitors of the cystic fibrosis transmembrane conductance regulator protein and uses therefor” (The Regents of the University of California, priority 2011, dated 2021).

Key:
human wildtype CFTR [1] = target: T1, human wildtype CFTR (Homo sapiens, UniProt P13569); assay: Fluorescence plate reader assay of CFTR inhibition (iodide influx); assay type: cell-based; design: expressed in transfected cells; host or cells: Fischer rat thyroid (FRT) cells; conditions: for IC50 / IC50 (μm)^A: Determined by micro-plate reader assay, FRT cells co-expressing human wild type CFTR and YFP-H148Q
T1 sequence (P13569 whole entry): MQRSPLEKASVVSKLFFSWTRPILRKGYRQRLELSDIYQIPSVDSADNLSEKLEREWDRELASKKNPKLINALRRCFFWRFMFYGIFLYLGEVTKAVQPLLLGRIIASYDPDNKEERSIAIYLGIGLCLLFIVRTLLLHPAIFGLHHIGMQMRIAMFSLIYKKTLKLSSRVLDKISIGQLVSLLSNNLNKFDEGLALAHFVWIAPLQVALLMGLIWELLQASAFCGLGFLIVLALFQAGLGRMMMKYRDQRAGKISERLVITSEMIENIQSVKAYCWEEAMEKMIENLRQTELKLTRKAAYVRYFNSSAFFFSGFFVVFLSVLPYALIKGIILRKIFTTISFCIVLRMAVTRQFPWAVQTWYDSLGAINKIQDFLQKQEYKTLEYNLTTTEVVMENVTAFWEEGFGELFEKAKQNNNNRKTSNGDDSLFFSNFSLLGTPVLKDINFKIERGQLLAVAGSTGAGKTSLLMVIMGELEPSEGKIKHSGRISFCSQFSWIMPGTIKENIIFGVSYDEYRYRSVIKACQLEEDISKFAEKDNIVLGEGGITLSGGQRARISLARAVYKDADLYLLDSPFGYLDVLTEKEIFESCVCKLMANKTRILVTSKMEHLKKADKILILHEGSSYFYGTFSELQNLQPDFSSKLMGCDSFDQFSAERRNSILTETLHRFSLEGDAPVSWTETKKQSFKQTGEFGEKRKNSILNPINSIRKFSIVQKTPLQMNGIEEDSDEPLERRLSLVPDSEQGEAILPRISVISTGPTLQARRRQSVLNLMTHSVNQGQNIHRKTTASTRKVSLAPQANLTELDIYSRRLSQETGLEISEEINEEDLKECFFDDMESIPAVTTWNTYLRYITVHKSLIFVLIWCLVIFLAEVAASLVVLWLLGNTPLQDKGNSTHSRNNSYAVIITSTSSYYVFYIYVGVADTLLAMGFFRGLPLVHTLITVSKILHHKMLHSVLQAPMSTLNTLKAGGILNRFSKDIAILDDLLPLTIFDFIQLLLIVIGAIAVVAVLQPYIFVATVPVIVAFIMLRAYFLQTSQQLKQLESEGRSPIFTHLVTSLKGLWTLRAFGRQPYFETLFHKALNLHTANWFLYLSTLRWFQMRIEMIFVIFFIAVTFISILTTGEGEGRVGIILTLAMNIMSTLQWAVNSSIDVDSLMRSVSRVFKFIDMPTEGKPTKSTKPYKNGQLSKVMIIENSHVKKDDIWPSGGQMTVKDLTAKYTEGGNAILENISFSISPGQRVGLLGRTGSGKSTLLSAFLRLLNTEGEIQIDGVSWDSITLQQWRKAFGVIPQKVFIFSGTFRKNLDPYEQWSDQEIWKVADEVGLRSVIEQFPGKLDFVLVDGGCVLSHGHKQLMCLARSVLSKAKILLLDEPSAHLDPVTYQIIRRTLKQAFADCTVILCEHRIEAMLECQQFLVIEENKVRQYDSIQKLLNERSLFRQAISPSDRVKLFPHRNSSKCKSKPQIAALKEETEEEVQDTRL
Experimental: Cell Culture and Plate Reader Assay of CFTR Inhibition—Fischer rat thyroid (FRT) cells co-expressing human wild type CFTR and the halide indicator YFP-H148Q were cultured in 96-well black-walled microplates (Corning Costar) at a density of 20,000 cells per well in Coon's modified F12 medium containing 10% fetal bovine serum, 2 mM L-glutamine, 100 U/mL penicillin and 100 μg/mL streptomycin. CFTR chloride conductance was assayed at 48 h after plating on a FluoStar fluorescence plate reader (BMG Lab Technologies) as described (see, e.g., Ma et al., J Clin Invest. 2002, supra). Each well was washed 3 times with PBS, leaving 60 μL PBS. Test compounds were added and incubated with the cells for 45 min. Then, 5 μL of a CFTR-activating cocktail (10 μM forskolin, 100 μM IBMX, 20 μM apigenin in PBS) was added. After 15 min, each well was assayed for iodide influx by recording fluorescence continuously (200 ms per point) for 2 s (baseline) and then for 10 s after rapid addition of 160 μL of isosmolar PBS in which 137 mM chloride was replaced by iodide. The initial rate of iodide influx was computed from fluorescence data by non-linear regression.
Initial testing of the compounds for the capability to inhibit CFTR was performed using a plate-reader assay in which iodide influx was measured in FRT cells co-expressing human wild type CFTR and the iodide-sensing yellow fluorescent protein YFP-H148Q/1152L. […] Table B below provides IC50 values for PPQ and BPO compounds.
The relative IC50 values obtained from the plate reader assay are useful for comparisons. Absolute IC50 values obtained from the plate-reader assay are approximate, generally underestimating compound potency because of assay non-linearities, pH-dependent YFP fluorescence, the use of iodide instead of chloride, and compound dilution at the start of the assay (see, e.g., Galietta et al., Am. J. Physiol. Cell Physiol. 281:C1734-42 (2001)).

human wildtype CFTR [2] = target: T1, human wildtype CFTR; assay: Short-circuit current analysis of CFTR inhibition in CFTR-expressing FRT cells; assay type: cell-based; design: expressed in transfected cells; host or cells: Fischer rat thyroid (FRT) epithelial cells on Snapwell inserts; conditions: Determined by short-circuit current assay; read-out: IC50 (μM)^B
Experimental: Short-Circuit Current—Snapwell inserts containing CFTR-expressing FRT cells were mounted in an Ussing chamber. The hemichambers contained 5 mL of buffer containing 75 mM NaCl and 75 mM Na gluconate (apical) and 150 mM NaCl (basolateral) (pH 7.3), and the basolateral membrane was permeabilized with 250 μg/mL amphotericin B, as described (see, e.g., Sonawane et al., FASEB J 2006, supra). Short-circuit current was recorded continuously using a DVC-1000 voltage clamp (World Precision Instruments) using Ag/AgCl electrodes and 3 M KCl agar bridges.
Current was measured in CFTR-expressing FRT cells in which the basolateral membrane was permeabilized and in the presence of a transepithelial chloride concentration gradient, so that current is a quantitative linear measure of CFTR function. CFTR was activated by forskolin, followed by serial additions of increasing concentrations of test compounds.
CFTR inhibition potency was measured by short-circuit current analysis in FRT epithelial cells expressing human CFTR in presence of a transepithelial chloride gradient and in which the basolateral membrane was permeabilized with amphotericin B. Under these conditions short-circuit current is proportional to CFTR chloride conductance.

Cc1ccc(C2c3c4c(c(-c5ccccc5)n3-c3ccccc3N2C)c(=O)n(C)c(=O)n4C)o1 (centres unmarked) [PPQ-5, 5,7,9-Trimethyl-6-(5-methylfuran-2-yl)-11-phenyl-5,6-dihydropyrimido[4′,5′-3,4]pyrrolo[1,2-a]quinoxaline-8,10-(7H,9H)-dione]
CFTR inhibition activity (in words) (human wildtype CFTR [1]): weakly active
IC50 (human wildtype CFTR [1]): 1000 nM

Cn1c(=O)c2c(-c3ccccc3)n3c(c2n(C)c1=O)C(c1ccc(I)o1)Oc1ccccc1-3 (centres unmarked) [BPO-17, 7,9-Dimethyl-6-(5-iodofuran-2-yl)-11-phenyl-6Hbenzo[b]pyrimido[4′,5′-3,4]pyrrolo[1,2-d]oxazine-8,10-(7H,9H)-dione]
IC50 (human wildtype CFTR [1]): 500 nM

CCc1ccc(C2Nc3ccccc3-n3c(-c4ccccc4)c4c(=O)n(C)c(=O)n(C)c4c32)o1 (centres unmarked) [PPQ-6, 7,9-Dimethyl-6-(5-ethylfuran-2-yl)-11-phenyl-5,6-dihydropyrimido[4′,5′-3,4]pyrrolo[1,2-a]quinoxaline-8,10-(7H,9H)-dione]
IC50 (human wildtype CFTR [1]): 300 nM

Cc1ccc(C2Oc3ccccc3-n3c(-c4ccccc4)c4c(=O)n(C)c(=O)n(C)c4c32)o1 (centres unmarked) [BPO-18, 7,9-Dimethyl-6-(5-methylfuran-2-yl)-11-phenyl-6H-benzo[b]pyrimido[4′,5′-3,4]pyrrolo[1,2-d]oxazine-8,10-(7H,9H)-dione]
IC50 (human wildtype CFTR [1]): 150 nM

Cc1ccc(C2Oc3ccc([N+](=O)[O-])cc3-n3c(-c4ccccc4)c4c(=O)n(C)c(=O)n(C)c4c32)o1 (centres unmarked) [BPO-22, 7,9-Dimethyl-6-(5-methylfuran-2-yl)-2-nitro-11-phenyl-6H-benzo[b]pyrimido[4′,5′-3,4]pyrrolo[1,2-d]oxazine-8,10-(7H,9H)-dione]
IC50 (human wildtype CFTR [2]): 0.025 µM
IC50 (human wildtype CFTR [1]): 100 nM

Cc1ccc(C2Nc3ccccc3-n3c(-c4ccccc4)c4c(=O)n(C)c(=O)n(C)c4c32)s1 (centres unmarked) [PPQ-7, 7,9-Dimethyl-6-(5-methylthiophene-2-yl)-11-phenyl-5,6-dihydropyrimido[4′,5′-3,4]pyrrolo[1,2-a]quinoxaline-8,10-(7H,9H)-dione]
IC50 (human wildtype CFTR [1]): 1700 nM

Cc1cccc(-c2c3c(=O)n(C)c(=O)n(C)c3c3n2-c2ccccc2OC3c2ccc(Cl)o2)c1 (centres unmarked) [BPO-19, 6-(5-Chlorofuran-2-yl)-7,9-dimethyl-11-(m-tolyl)-6Hbenzo[b]pyrimido[4′,5′-3,4]pyrrolo[1,2-d]oxazine-8,10-(7H,9H)-dione]
IC50 (human wildtype CFTR [1]): 370 nM

Cc1ccc(C2c3c4c(c(-c5ccccc5)n3-c3ccccc3N2S(C)(=O)=O)c(=O)n(C)c(=O)n4C)o1 (centres unmarked) [PPQ-1, 7,9-Dimethyl-6-(5-methylfuran-2-yl)-5-(methylsulfonyl)-11-phenyl-5,6-dihydropyrimido[4′,5′-3,4]pyrrolo[1,2-a]quinoxaline-8,10-(7H,9H)-dione]
IC50 (μm)^A (human wildtype CFTR [1]): inactive

Cn1c(=O)c2c(-c3ccccc3)n3c(c2n(C)c1=O)C(c1cc2ccccc2o1)Nc1ccccc1-3 (centres unmarked) [PPQ-15, 6-(Benzofuran-2-yl)-7,9-dimethyl-11-phenyl-5,6-dihydropyrimido[4′,5′-3,4]pyrrolo[1,2-a]quinoxaline-8,10-(7H,9H)-dione]
IC50 (μm)^A (human wildtype CFTR [1]): inactive

Cn1c(=O)c2c(-c3ccccc3)n3c(c2n(C)c1=O)C(c1ccc(Cl)o1)Nc1ccccc1-3 (centres unmarked) [PPQ-9, 6(5-Chlorofuran-2-yl)-7,9-dimethyl-11-phenyl-5,6-dihydropyrimido[4′,5′-3,4]pyrrolo[1,2-a]quinoxaline-8,10-(7H,9H)-dione]
IC50 (human wildtype CFTR [1]): 150 nM

Cn1c(=O)c2c(-c3ccccc3)n3c(c2n(C)c1=O)C(c1ccc(CO)o1)Nc1ccccc1-3 (centres unmarked) [PPQ-14, 7,9-Dimethyl-11-phenyl-6-(5-hydroxymethylfuran-2-yl)-5,6-dihydropyrimido[4′,5′-3,4]pyrrolo[1,2-a]quinoxaline-8,10-(7H,9H)-dione]
IC50 (μm)^A (human wildtype CFTR [1]): inactive

Cc1cccc(-c2c3c(=O)n(C)c(=O)n(C)c3c3n2-c2ccccc2OC3c2ccc(C)o2)c1 (centres unmarked) [BPO-20, 7,9-Dimethyl-6-(5-methylfuran-2-yl)-11-(m-tolyl)-6H-benzo[b]pyrimido[4′,5′-3,4]pyrrolo[1,2-d]oxazine-8,10-(7H,9H)-dione]
IC50 (human wildtype CFTR [1]): 600 nM

Cn1c(=O)c2c(-c3ccccc3)n3c(c2n(C)c1=O)C(c1ccc(Br)o1)Nc1ccc([N+](=O)[O-])cc1-3 (centres unmarked) [PPQ-23, 6-(5-Bromofuran-2-yl)-7,9-dimethyl-2-nitro-11-phenyl-5,6-dihydropyrimido[4′,5′-3,4]pyrrolo[1,2-a]quinoxaline-8,10-(7H,9H)-dione]
IC50 (human wildtype CFTR [1]): 170 nM

Cc1ccc(C2c3c4c(c(-c5ccccc5)n3-c3ccccc3N2N=O)c(=O)n(C)c(=O)n4C)o1 (centres unmarked) [PPQ-4, 7,9-Dimethyl-6-(5-methylfuran-2-yl)-5-nitroso-11-phenyl-5,6. -dihydropyrimido[4′,5′-3,4]pyrrolo[1,2-a]quinoxaline-8,10-(7H,9H)-dione]
IC50 (human wildtype CFTR [1]): 2000 nM

CCOC(=O)c1ccc2c(c1)-n1c(-c3ccccc3)c3c(=O)n(C)c(=O)n(C)c3c1C(c1ccc(Br)o1)O2 (racemic) [BPO-25, Ethyl 6-(5-Bromofuran-2-yl)-7,9-dimethyl-8,10-dioxo-11-phenyl-7,8,9,10-tetrahydro-6H-benzo[b]pyrimido[4′,5′:3,4]pyrrolo[1,2-d][1,4]oxazine-2-carboxylate]
IC50 (human wildtype CFTR [2]): 0.025 µM
CFTR inhibition activity (in words) (human wildtype CFTR [1]): excellent CFTR inhibition activity
IC50 (human wildtype CFTR [1]): 50 nM

Cc1ccc(C2c3c4c(c(-c5ccccc5)n3-c3ccccc3N2C(=O)CCl)c(=O)n(C)c(=O)n4C)o1 (centres unmarked) [PPQ-2, 5-(2-Chloroacetyl)-7,9-dimethyl-6-(5-methylfuran-2-yl)-11-phenyl-5,6-dihydropyrimido[4′,5′-3,4]pyrrolo[1,2-a]quinoxaline-8,10-(7H,9H)-dione]
IC50 (μm)^A (human wildtype CFTR [1]): inactive

Cn1c(=O)c2c(-c3ccccc3)n3c(c2n(C)c1=O)C(c1ccc(C(F)(F)F)o1)Nc1ccccc1-3 (centres unmarked) [PPQ-12, 7,9-Dimethyl-11-phenyl-6-(5-trifluoromethylfuran-2-yl)-5,6-dihydropyrimido[4′,5′-3,4]pyrrolo[1,2-a]quinoxaline-8,10-(7H,9H)-dione]
IC50 (human wildtype CFTR [1]): 350 nM

Cc1ccc(C2Oc3cc([N+](=O)[O-])c(Cl)cc3-n3c(-c4ccccc4)c4c(=O)n(C)c(=O)n(C)c4c32)o1 (centres unmarked) [BPO-24, 2-Chloro-7,9-Dimethyl-6-(5-methylfuran-2-yl)-3-nitro-11-phenyl-6H-benzo[b]pyrimido[4′,5′-3,4]pyrrolo[1,2-d]oxazine-8,10-(7H,9H)-dione]
IC50 (human wildtype CFTR [1]): 170 nM

Cn1c(=O)c2c(-c3ccccc3)n3c(c2n(C)c1=O)C(c1ccc(-c2ccccc2)o1)Nc1ccccc1-3 (centres unmarked) [PPQ-13, 7,9-Dimethyl-11-phenyl-6-(5-phenylfuran-2-yl)-5,6-dihydropyrimido[4′,5′-3,4]pyrrolo[1,2-a]quinoxaline-8,10-(7H,9H)-dione]
IC50 (μm)^A (human wildtype CFTR [1]): inactive

CC(=O)N1c2ccccc2-n2c(-c3ccccc3)c3c(=O)n(C)c(=O)n(C)c3c2C1c1ccc(C)o1 (centres unmarked) [PPQ-3, 5-Acetyl-7,9-dimethyl-6-(5-methylfuran-2-yl)-11-phenyl-5,6. -dihydropyrimido[4′,5′-3,4]pyrrolo[1,2-a]quinoxaline-8,10-(7H,9H)-dione]
IC50 (μm)^A (human wildtype CFTR [1]): inactive

CCOC(=O)c1ccc2c(c1)-n1c(-c3ccccc3)c3c(=O)n(C)c(=O)n(C)c3c1C(c1ccc(C)o1)O2 (centres unmarked) [BPO-26, Ethyl 7,9-Dimethyl-8,10-dioxo-6-(5-methylfuran-2-yl)-11-phenyl-7,8,9,10-tetrahydro-6H-benzo[b]pyrimido[4′,5′:3,4]pyrrolo[1,2-d][1,4]oxazine-2-carboxylate]
IC50 (human wildtype CFTR [1]): 80 nM

Cc1cc(C2Nc3ccccc3-n3c(-c4ccccc4)c4c(=O)n(C)c(=O)n(C)c4c32)oc1C (centres unmarked) [PPQ-8, 7,9-Dimethyl-6-(4,5-dimethylfuran-2-yl)-11-phenyl-5,6-dihydropyrimido[4′,5′-3,4]pyrrolo[1,2-a]quinoxaline-8,10-(7H,9H)-dione]
IC50 (human wildtype CFTR [1]): 1700 nM
